Assay results: US20100256217A1, “ANTIVIRAL INHIBITION OF CASEIN KINASE II” (The Trustees of the University of Pennsylvania, priority 2006, published 2010)
“Also recorded” adds a separate entry of the source.

Columns and labels:
[1] = test system: CK2-mediated phosphorylation of WNV C in Vero cells; test: In vivo 32P labeling and immunoprecipitation of WNV C from transfected cells under DRB; assay type: cell-based, African green monkey; conditions: cells transfected with pcWNV C-His; DRB 100, 500 and 1000 μM; anti-His immunoprecipitation
Method: In vivo ^32P-Orthophosphate labeling and WNV C immunoprecipitation. In order to check whether Cp is phosphorylated in vivo also, Capsid-transfected cells were pulse-chased with […] and their lysates were analyzed for the detection of phosphorylated capsid proteins by Immunoprecipitation. HeLa cells were grown in DMEM medium supplemented with 10% FBS until they were subconfluent. The cells were transfected with WNV Cp constructs and DOTAP/DNA containing media were replaced after about 6-hours with media with/without […]. DBS was added to a final concentration of 0.1, 0.5 and 1.0 mM. The Control cells were treated with DMSO alone. Phospholabeling and immunoprecipitation of WNV CP were performed as described previously. […] WNV CP was precipitated with anti-His monoclonal antibody (Scil Diagnostics, Martinsried, Germany). […] The immunoprecipitated capsid proteins were eluted from the protein G-agarose by boiling them for 5 min and analyzed by SDS-PAGE, followed by autoradiography.
Subsequent to the identification and characterization of CK2-mediated phosphorylation of the rC in vitro, we wanted to study this phenomenon in vivo. […] The lysates from the matching controls that were not exposed to radioactivity, were analyzed separately for capsid expression. […]

[2] = test system: capsid-containing VLPs; test: ELISA of capsid from culture fluid (secretion of capsid-containing VLPs); assay type: cell-based; conditions: DRB added to culture medium; anti-C ELISA
Text: Quantification of the protein C in ELISA from the supernatants of transfected cells. The ability of unprocessed and truncated capsid proteins to participate in the budding was assed by ELISA from culture fluid of transfected cells. In 6 cm plates, the cells were transfected with full-length capsid (123 aa) or truncated capsid (105 aa) or C(S36A) plasmids or in combination with WNV M and E-expressing constructs. Forty eight hours post-transfection, the supernatants were collected and analyzed for viral budding. One hundred microliters of supernatants were plated in triplicate, in a serial dilution series (dilutions in carbonate bicarbonate buffer) on a high protein binding EIA/RIA 96 well plate (Costar) and incubated at 4° C. overnight. In addition to the supernatants from experimental samples, a mock-transfected and untransfected media control is also added to the assay samples. Moreover, a series of wells are used as negative controls for the assay in that no supernatant is added to these wells only carbonate bicarbonate buffer. After 3 washes with PBS, nonspecific binding sites are blocked with 3% BSA in PBS solution, for 2 hours at room temperature. […] The reaction is terminated by adding 4N H2SO4 and protein levels are measured using an ELISA reader (Molecular Diagnostics) at 450 nm. […]

[3] = test system: WNV; test: WNV release from infected 293 cells, ELISA with anti-E antibody; assay type: cell-based, West Nile virus; conditions: 4 MOI, 48 h post infection
Text: FIG. 6 includes panels A and B. Both reduced CK2 activity and depletion of CK2 transcripts affects viral release. FIG. 6 panel A: Depletion of CK2 transcripts reduced viral replication. As described earlier, the cells were transfected with full-length infectious clone along with siRNA-CK2α and siRNA-CK2β molecules. Lane 1 depicts the amount of viral release from the plates that were not treated with any of siRNA molecules. […] FIG. 6 panel B: Effect of cell-permeable CK2-inhibitor on viral release. 293 cells were infected with infectious WNV samples, propagated from an infectious clone of WNV.
In the context of whole virus, we examined whether inhibition of cellular CK2 affects WN viral release. We generated high titer of viral sample from Vero cells transfected with full length infectious clone (Pierson et al 2005). We harvested culture fluid at regular intervals, determined viral titre by routine Plaque assays and used them for infection assays. […] Forty-eight hours post infection, viral release was monitored by both plaque assays as well as ELISAs measuring the presence of […] using monoclonal anti E antibody. FIG. 6B depicts the release of viral molecules from WNV-infected cells as measured by ELISA using anti-E antibody. […] While the inhibition of cellular CK2 activity results in the reduced viral load, it is presumable that depletion of CK2 transcripts also could cause similar effect. In order to test this, in the second approach, WNV release was evaluated under the conditions where expression of CK2 subunits was knocked out. Cellular CK2 was knocked out by using siRNA molecules that specifically target CK2α and CK2β transcripts. siRNA-CK2α and siRNA-CK2β molecules were used to deplete cellular transcripts of CK2. 293 cells were infected with infectious WNV followed by the treatment with either siRNA control molecules or siRNA-CK2α or siRNA-CK2β molecules. Release of WNV was monitored from these plates. […] We also observed severe impairment of capsid phosphorylation in the pulse-chase studies under the influence of siRNA molecules.

[4] = test system: WNV; test: WNV titers by plaque assay on Vero cells; assay type: cell-based, West Nile virus; conditions: DRB at different doses (FIG. 7B)
Method: The inhibited level of viral release indicates the siRNA-CK2 mediated effects are statistically significant.
Virus titration by plaque assay. Virus production was titered by plaque assays using Vero cells. For routine analysis, cells were seeded in 6-well (6×10^5 cells/well) or 12-well (3×10^5 cells/well) plates in -MEM with 10% FBS for 3 h at 37° C. Medium was removed, serial dilutions of virus supernatants in -MEM with 2% FBS were added (0.30 ml/well for 6-well plates and 0.15 ml/well for 12-well plates), and the cells were incubated for 2 h at 37° C. […] Virus concentrations are determined as PFU per milliliter.
In the context of whole virus, we examined whether inhibition of cellular CK2 affects WN viral release. […] We harvested culture fluid at regular intervals, determined viral titre by routine Plaque assays and used them for infection assays. […] Forty-eight hours post infection, viral release was monitored by both plaque assays as well as ELISAs measuring the presence of […] using monoclonal anti E antibody. FIG. 6B depicts the release of viral molecules from WNV-infected cells as measured by ELISA using anti-E antibody. […] In order to test this, in the second approach, WNV release was evaluated under the conditions where expression of CK2 subunits was knocked out. […] Release of WNV was monitored from these plates. […]

[5] = molecular target: T1, recombinant CK2 (Homo sapiens, UniProt P68400); test: In vitro CK2 kinase assay with recombinant WNV C as substrate; assay type: biochemical; conditions: 32P-ATP or 32P-GTP as donor; autoradiography
T1 construct: purchased Biomol Research Laboratories (Plymouth Meeting, Pa.)
Method: In vitro protein kinase assays. In vitro phosphorylation assays were routinely done with the recombinant Cp proteins with the recombinant CK2 (Biomol, Pa.) in a 20 μl-reaction volume. Reaction mixtures (20 μL) contained 25 mM Hepes, pH 7.4, 2 mM MnCl2 or 5 mM MgCl2, 1.6 μCi of -^32P-GTP or […] (Amersham Pharmacia Biotech), and 0.5 to 1 μg of purified His-tagged WNV Cp as a substrate. Histone 1B (Calbiochem) protein was used as positive control. The phosphorylation reaction was started by the addition of ^32P-ATP or ^32P-GTP and the reaction was carried out for 30 min at 30 C. The kinase assays were arrested by the addition of 20 μl of SDS-sample buffer and the reaction mixtures were boiled for five minutes. Phosphorylated proteins were separated in SDS PAGE and proteins ere visualized by autoradiography.
Purified rC fractions from E. coli cells (M15[pREP4+pQE-WNV C]) were subjected to subsequent kinase assays. Using purified CK2 enzyme, in vitro assay was performed with ^32P-ATP as a phosphate donor to examine possible role of CK2 in the phosphorylation of WNV C. […] CK2 is unique among protein kinases in its ability to use both ATP and GTP as phosphoryl group donors. Another biochemical property of CK2 that makes it different from other kinases is its high sensitivity to inhibition by heparin.

T1 sequence (P68400 whole entry): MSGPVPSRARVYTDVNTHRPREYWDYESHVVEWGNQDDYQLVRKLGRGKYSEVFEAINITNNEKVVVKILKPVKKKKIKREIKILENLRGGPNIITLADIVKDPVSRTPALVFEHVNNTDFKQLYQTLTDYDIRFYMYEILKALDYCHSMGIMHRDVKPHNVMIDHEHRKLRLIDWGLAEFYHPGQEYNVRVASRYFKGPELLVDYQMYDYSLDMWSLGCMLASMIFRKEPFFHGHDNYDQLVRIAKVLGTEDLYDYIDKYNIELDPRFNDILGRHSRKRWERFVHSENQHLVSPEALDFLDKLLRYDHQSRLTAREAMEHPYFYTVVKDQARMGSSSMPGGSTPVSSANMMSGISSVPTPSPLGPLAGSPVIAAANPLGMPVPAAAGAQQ
T1 sequence (P67870 whole entry partner): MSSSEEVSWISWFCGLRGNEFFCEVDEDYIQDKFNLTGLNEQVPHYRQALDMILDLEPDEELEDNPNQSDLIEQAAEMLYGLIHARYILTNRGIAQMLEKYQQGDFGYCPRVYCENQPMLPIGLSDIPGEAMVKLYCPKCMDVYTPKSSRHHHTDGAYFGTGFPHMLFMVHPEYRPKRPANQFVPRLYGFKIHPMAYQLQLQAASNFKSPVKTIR

Row | Molecule | in vivo phosphorylation of WNV C [1] | level of capsid in the culture fluid [2] | viral release ([3]; DRB 5 uM) | viral release ([3]; DRB 10 uM) | viral release ([3]; DRB 50 uM) | WNV replication and release into culture medium by plaque assay [4] | heparin concentration at which the ability of CK2 to phosphorylate C was adversely affected [5] | phosphorylation of C by CK2 in vitro [5]
1 | OC[C@H]1O[C@@H](n2cnc3cc(Cl)c(Cl)cc32)[C@H](O)[C@@H]1O [DRB, 5,6-Dichloro-1-b-D-ribofuranosylbenzimidazole] | severely inhibited; also recorded: specifically blocks the phosphorylation of capsid; also recorded: adversely inhibited | significantly reduced the level of capsid from the culture fluid | significantly reduces viral release | reduced by almost one fold | completely effective at blocking viral release | dose dependent |  | 
2 | heparin |  |  |  |  |  |  | above 10 uM | severely inhibited; also recorded: severely impaired in a dose dependent manner
